# Test results published in patent US20250152527A1 (priority 2023, published 2025).
# Experiments:
# [1] = tested on: patients with clinically stable coronary disease; assay: LoDoCo Trial: colchicine 0.5 mg/day added to standard secondary prevention therapies; assay type: in vivo, human
# Description: This study is described in PCT/AU2013/001261 and is hereby incorporated in its entirety by reference.
# All outcomes were evaluated by an experienced adjudicator blinded to the treatment allocation.
# Patients with a history of bypass surgery were only eligible if they had undergone bypass surgery more than 10 years before, or had angiographic evidence of graft failure or had undergone stenting since their bypass surgery. All patients signed informed consent before randomization.
# Patients who were intolerant to therapy remained in the study, and were followed in the usual manner and included in the primary intention to treat analysis.
# The drug was dispensed by their usual chemist, and if requested, patients were reimbursed for the cost of these scripts. All other treatments were continued as usual.
# An acute coronary syndrome (ACS) was defined as either (a) Acute Myocardial Infarction (AMI), as evidenced by acute ischemic chest pain associated with a rise in serum troponin above the upper limit of normal or (b) Unstable Angina (UA), as evidenced by a recent acceleration of the patient's angina unassociated with a rise in serum troponin but associated with angiographic evidence of a change in the patient's coronary anatomy. (Unstable Angina Braunwald classification types IB and IIB). The ACS was characterized as being stent-related if there was evidence of significant in-stent stenosis or acute stent thrombosis. Out of Hospital Cardiac Arrest was defined as either a sudden death as evidenced on the patient's death certificate, or a non-fatal out of hospital cardiac arrest, defined as a recovery from sudden collapse associated with documented asystole, ventricular tachycardia or ventricular fibrillation.
# The primary efficacy outcome was the composite, ACS, fatal or non-fatal out of hospital cardiac arrest or non-cardio-embolic ischemic stroke. […]
# All time to event outcomes were calculated in days by subtracting the date of randomization from either: (1) the date of event or death; or (2) the trial termination date for those patients not experiencing the defined event. […]
# [2] = tested on: patients with clinically stable coronary disease; conditions: Nidorf et al., JACC 2013; 0.5 mg/day in addition to statins and other standard therapies; cited from earlier work
structure (smiles),measurement,setting,value
"COc1cc2c(c(OC)c1OC)-c1ccc(OC)c(=O)cc1[C@@H](NC(C)=O)CC2 [colchicine, (−)-N-[(7S, 12aS)-1,2,3,10-tetramethoxy-9-oxo-5,6,7,9-tetrahydrobenzo[a]heptalen-7-yl]-acetamide]",patients with ACS unrelated to stent disease associated with an AMI,[1]; 4/282 patients,1.4%
same,patients with ACS unrelated to stent disease associated with UA,[1]; 5/282 patients,1.8%
same,"patients with a primary outcome (ACS, out of hospital cardiac arrest or non-cardio-embolic ischemic stroke)","[1]; intention to treat, 15/282 patients, colchicine 0.5 mg/day, median follow up 36 months",5.3%
same,prevention of cardiovascular events,[2],appeared effective for the prevention of cardiovascular events
